Results as given in US12213955B2 (priority 2017, dated 2025).
Like-named read-outs stand apart in the source and are kept apart here.

Experiments:
[1] = test system: MERS-CoV; assay: microbe, parasite or virus in culture; assay type: cell-based
[2] = test system: Huh7 cells; assay type: cell-based, human
[3] = test system: MERS-CoV; assay type: cell-based
[4] = test system: MERS-CoV; assay type: cell-based, MERS-CoV (HCoV-EMC/2012)
[5] = test system: MERS-CoV; assay type: cell-based, MERS-CoV (HCoV-EMC/2012); remark: listed apart in the source
[6] = test system: SARS-CoV; assay type: cell-based, SARS-CoV (GZ50)
[7] = test system: enterovirus-A71 (EV-A71); assay type: cell-based, Enterovirus A71 (SZ/HK08-5)
[8] = target: T1, n-SREBP2 (Homo sapiens, UniProt Q12772); assay: SREBP2 DNA (SRE) binding activity assay; assay type: biochemical; details: dose-dependent
T1 construct: requires cleavage of pre-SREBPs to release the nuclear form (n-SREBPs); endogenous in cells; Huh7 in the sister assay
T1 sequence (Q12772 1-484 limits assumed): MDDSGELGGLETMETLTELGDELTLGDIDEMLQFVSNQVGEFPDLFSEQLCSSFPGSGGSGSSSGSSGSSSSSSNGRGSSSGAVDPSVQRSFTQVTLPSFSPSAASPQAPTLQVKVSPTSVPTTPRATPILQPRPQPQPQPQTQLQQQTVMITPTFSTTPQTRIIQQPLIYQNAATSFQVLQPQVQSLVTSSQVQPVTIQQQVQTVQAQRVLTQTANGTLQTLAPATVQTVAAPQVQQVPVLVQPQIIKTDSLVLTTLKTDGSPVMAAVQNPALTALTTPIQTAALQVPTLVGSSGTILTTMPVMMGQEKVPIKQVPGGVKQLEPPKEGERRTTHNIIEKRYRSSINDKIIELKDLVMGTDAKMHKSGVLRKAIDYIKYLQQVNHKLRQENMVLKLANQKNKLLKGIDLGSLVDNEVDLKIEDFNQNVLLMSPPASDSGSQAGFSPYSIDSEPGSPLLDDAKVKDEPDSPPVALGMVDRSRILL

[9] = test system: MERS-CoV; assay type: cell-based; remark: listed apart in the source
[10] = test system: double-membrane vesicles (DMVs); assay type: cell-based, African green monkey
[11] = test system: FAS-promoter; assay type: cell-based
[12] = test system: MERS-CoV; assay type: cell-based; remark: listed apart in the source
[13] = test system: fatty acid and cholesterol synthesis genes; assay type: cell-based, human
[14] = target: T2, n-SREBP1 (Homo sapiens, UniProt P36956); assay: SREBP1 DNA (SRE) binding activity assay; assay type: biochemical
T2 construct: requires cleavage of pre-SREBPs to release the nuclear form (n-SREBPs); endogenous in cells; host or cells: Huh7 nuclear extract
T2 sequence (P36956 1-490 limits assumed): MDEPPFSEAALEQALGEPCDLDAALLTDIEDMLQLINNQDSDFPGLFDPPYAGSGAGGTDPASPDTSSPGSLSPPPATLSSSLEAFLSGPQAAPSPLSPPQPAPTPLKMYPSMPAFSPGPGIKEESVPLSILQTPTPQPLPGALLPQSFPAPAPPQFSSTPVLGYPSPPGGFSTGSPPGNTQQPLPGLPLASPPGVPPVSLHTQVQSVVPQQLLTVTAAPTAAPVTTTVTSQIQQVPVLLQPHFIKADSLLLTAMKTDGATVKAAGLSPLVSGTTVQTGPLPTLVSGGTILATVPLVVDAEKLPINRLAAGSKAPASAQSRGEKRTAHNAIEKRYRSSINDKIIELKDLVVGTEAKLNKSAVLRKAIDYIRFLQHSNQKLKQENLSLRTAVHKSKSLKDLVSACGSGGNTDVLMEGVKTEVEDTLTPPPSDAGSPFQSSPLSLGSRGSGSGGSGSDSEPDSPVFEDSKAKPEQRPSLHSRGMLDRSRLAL

[15] = test system: TK, CMV and SV40 promoters; assay type: cell-based
[16] = test system: TNF-α, IL-1β, IL-8; assay type: cell-based, human
[17] = test system: MERS-CoV; assay type: cell-based; remark: listed apart in the source
[18] = test system: MERS-CoV; assay type: cell-based; remark: listed apart in the source
[19] = test system: MERS-CoV; assay type: cell-based; remark: listed apart in the source
[20] = test system: MERS-CoV; details: mouse, in vivo
[21] = test system: MERS-CoV; assay type: cell-based; remark: listed apart in the source
[22] = test system: MERS-CoV; assay type: cell-based; remark: listed apart in the source
[23] = test system: Influenza A(H7N9) virus; details: mouse, in vivo
[24] = mouse models, reported [43]; cited from earlier work
[25] = test system: MERS-CoV nucleoprotein (NP); assay type: cell-based
[26] = test system: Calu-3 cells; assay type: cell-based, human
[27] = test system: different cell lines
[28] = test system: human adenovirus type 5 (AdV5); assay type: cell-based
[29] = test system: Zika virus (ZIKV); assay type: cell-based, ZIKV (Puerto Rico strain PRVABC59)
[30] = test system: MERS-CoV; assay type: cell-based, MERS-CoV (HCoV-EMC/2012); remark: listed apart in the source
[31] = test system: hemagglutinin (HA)
[32] = test system: MERS-CoV; assay type: cell-based; remark: listed apart in the source
[33] = test system: HMGCS promoter; assay type: cell-based, hamster
[34] = test system: MERS-CoV; assay type: cell-based; remark: listed apart in the source
[35] = test system: MERS-CoV; assay type: cell-based; remark: listed apart in the source
[36] = Middle East respiratory syndrome-related coronavirus, read-out: IC50 anti-MERS-CoV activity

In the case of `C=C(c1ccc(C(=O)O)cc1)c1cc2c(cc1C)C(C)(C)CCC2(C)C` [bexarotene], the IC50 [1, 36] is reported as 875 ± 15 nM.
In the case of `CC1(C)CCC(C)(C)c2cc(C(=O)Nc3ccc(C(=O)O)cc3)ccc21` [AM580], the “accumulation of lipid droplets and cholesterol” value [2] is reported as “significantly reduced their production”, the “MERS-CoV replication in multiple cell types” value [3] is reported as “reduce MERS-CoV replication in multiple cell types” and the “reduction of viral titer in the cell supernatant” value [4] is reported as over 3 logs. The “cell protection against MERS-CoV infection” value [5] was “protected cells against infection”, the “concentrations inhibiting replication of SARS-CoV” value [6] was “nanomolar to low micromolar” and the “selectivity index (CC50/IC50)” value [6] was 114. For the same molecule, the “concentrations inhibiting replication of EV-A71” value [7] was “nanomolar to low micromolar”, the “binding of n-SREBP2 with its SRE” value [8] was “inhibited binding” and the “PFU in intestinoid culture supernatant” value [9] was “no PFU were detectable”. The “expression of viral NP in intestinoids” value [9] was “markedly decreased expression of viral NP”, the “reduction of viral titer relative to DMSO-treated control intestinoids” value [9] was “approximately 6 log10 PFU/ml” and the DMV formation [10] was “no DMVs were noted”. For the same molecule, the “FAS-promoter-Luc reporter gene activity” value [11] was “concentration-dependent inhibition”, the “immunofluorescence staining for MERS-CoV NP” value [12] was “near-complete suppression of virus infection” and the “cholesterol synthetic pathway genes with reduced mRNA expression (10/12)” value [13] was 83.3%. The “fatty acid metabolism genes with significant decreases in mRNA expression (13/17)” value [13] was 76.5%, the “binding of n-SREBP1 with its SRE” value ([14]; Huh7 nuclear extraction, 20 μM) was “inhibited binding” and the “binding partner: n-SREBP1 or SRE (pre-incubation)” value ([14]; pre-incubation 2 h) was “bind with n-SREBP1 rather than SRE”. The “transactivation of TK, CMV and SV40 promoters” value [15] was “did not inhibit transactivation of promoters”, the “virus-induced pro-inflammatory cytokine activation” value [16] was “suppress virus-induced pro-inflammatory cytokine activation” and the “anti-MERS-CoV activity (viral yield)” value [17] was “showed anti-MERS-CoV activity”. For the same molecule, the “virus yield on addition of sodium palmitate” value [17] was “increased the virus yield”, the “loss of antiviral potency with increased n-SREBPs” value [18] was “about 1 log10 unit” and the “antiviral potency of AM580 with RAR-α antagonist ER50891” value [19] was “did not diminish the antiviral potency”. The “alveolar damage and interstitial inflammatory infiltration in lung tissues” value [20] was “significantly improved”, the “mean body weight vs DMSO-treated control mice” value [20] was “generally higher” and the “reduction of viral RNA content of brain tissues vs DMSO-treated control” value [20] was 4 log10. For the same molecule, the “viral RNA content in lung tissues vs DMSO-treated control” value [20] was “significantly (p<0.01) lower”, the survival ([20]; ip, 12.5 mg/kg/day) was 100% and the “MERS-CoV NP expression in epithelial cells of terminal bronchioles” value [21] was “marked reduction in MERS-CoV NP expression”. For the same molecule, the “MERS-CoV attachment or internalization” value [22] was “did not interfere with MERS-CoV attachment or internalization”, the lung histopathology [23] was “ameliorated virus-associated pulmonary inflammatory infiltration and bronchopneumonia” and the mean body weight [23] was “gradually rebounded starting on day 8 post-challenge”. The “mean viral RNA load in lung tissues vs DMSO-treated control” value [23] was “significantly (p<0.01) lower”, the survival rate [23] was 60% and the teratogenicity [24] was “teratogenic effects”. For the same molecule, the IC50 ([1]; read-out: IC50 against MERS-CoV infection) was under 1000 nM, the “expression of MERS-CoV nucleoprotein (NP)” value [25] was “dramatically decreased” and the “virus-induced perturbation of lipid homeostasis (lipidome)” value [26] was “antagonized this virus-induced perturbation of lipid homeostasis”. For the same molecule, the CC50 [27] was 100000 to 200000 nM, the “concentrations inhibiting replication of AdV5” value [28] was “nanomolar to low micromolar” and the “concentrations inhibiting replication of ZIKV” value [29] was “nanomolar to low micromolar”. The “selectivity index (CC50/IC50)” value [30] was 507, the palmitoylated-HA level [31] was “Reduced levels of palmitoylated-HA” and the “total HA protein” value [31] was “no impact on protein synthesis”. For the same molecule, the “MERS-CoV NP-positive cells” value [32] was 5.38% and the “HMGCS-promoter-Luc reporter gene activity” value [33] was “concentration-dependent inhibition”.
`CC1(C)CCC(C)(C)c2cc(NC(=O)c3ccc(C(=O)O)cc3)ccc21` [Tamibarotene] showed an IC50 [1, 36] of 320 ± 26 nM.
In the case of `C=C(C)[C@@H]1CC[C@]2(CO)CC[C@]3(C)[C@H](CC[C@@H]4[C@@]5(C)CC[C@H](O)C(C)(C)[C@@H]5CC[C@]43C)[C@@H]12` [betulin], the “reduction in viral titer” value [34] is reported as “about 1 log PFU/ml”.
In the case of `C=C1CC[C@H](O)C/C1=C/C=C1\CCC[C@]2(C)[C@@H]([C@H](C)CCCC(C)(C)O)CC[C@@H]12` [25-Hydroxyvitamin D3], the “cell protection against MERS-CoV infection” value [5] is reported as “protected Huh7 cells against MERS-CoV infection”.
For PF429242, the “reduction in viral titer” value [34] was “about 1 log PFU/ml”.
In the case of `CCCCCCCCCCCCCCC(Br)C(=O)O` (stereo not shown) [2-BP], the MERS-CoV replication [35] is reported as “inhibited MERS-CoV replication in a dose-dependent manner”, the palmitoylated-HA level [31] is reported as “Reduced levels of palmitoylated-HA” and the “total HA protein” value [31] is reported as “no impact on protein synthesis”.
